What all share (type): cell-based, human
The test system of test [1] is CAR. In words: Switchable expression of CAR by removal of ASV (YFP, flow cytometry), CAR T cells. The settings on record: T cells transduced with CAR (FIG. 16A). From the text:
(§1) Human total pan T cells were isolated from PBMC donors by magnetic-assisted cell sorting using StemCell Technologies Total Pan T Cell Isolation Kit and stimulated with anti-CD3/28 Dynabeads at a 1:3 ratio (T cells:Dynabeads), 10^6 T cells with 3×10^6 Dynabeads, in CTS OpTmizer media with CTS Serum Replacement and recombinant human IL-2 [100 U/ml]. One day later T cells were then transduced with lentivirus carrying a CAR comprising anti-HER2 or anti-CD19 scFv. Specifically, lentivirus encoding CAR, CAR-SMASh and CAR-SMASh[GGS] comprising anti-HER2 or anti-CD19 scFv was transduced. CAR-T cells were then split into a larger well with fresh media added. On Day 5 CAR-T cells were exposed to ASV for 2 days, washed 2 times, then re-cultured in media without ASV and then were acquired by flow cytometry at various time points and YFP expression was measured.
Background: A flow cytometer gives signals particle by particle.

In test [2] the test system is CAR. In words: Switchable expression of CAR by application of ASV (YFP, flow cytometry), CAR T cells.
Excerpt: The first fusion protein (left) comprises an extracellular protein binding domain fused to a myc tag and three intracellular signaling domains fused to YFP. The second fusion protein (middle; “CAR-SMASh”) further comprises a Hepatitis C (HCV) NS4A-NS4B protease cleavage site, a HCV NS3 protease domain, and a degron derived from the HCV NS4A protein. The CAR-SMASh, therefore, expresses CAR, but induces degradation of CAR in the presence of ASV. The third fusion protein (right; “CAR-SMASh[GGS]”) is a CAR-SMASh mutant lacking the NS4 degron.
as §1, with “[…],” for “3×10^6 Dynabeads,”, “[2 μM]” for “for 2 days, washed 2 times, then re-cultured in media without ASV”, “analyzed” for “were acquired”, “cytometry to measure YFP expression” for “cytometry”, “points, including on day 6 (FIG. 13)” for “points”, “on day 7 (FIG. 14).” for “YFP expression was measured.”

Test [3] has as its system Jurkat cells transduced with an anti-Her2 CAR fused to a self-excising degron. Put plainly: T cell activation (CD69) of anti-Her2 CAR-degron Jurkat cells on recombinant Her2. The settings on record: 1 μM ASV 2 days, then recombinant Her2-coated plates overnight, even at high Her2 (10 μg/mL). As to the method:
The function of an anti-Her2 CAR fused to a self-excising degron in T cells was tested in vitro. Jurkat cells (an immortalized human T cell line) were transduced with an anti-Her2 CAR fused to a self-excising degron (SEQ ID NO: 4). These cells were incubated in the presence (1 μM ASV) or absence of the ASV protease inhibitor for 2 days, then subsequently placed on tissue culture plates coated with recombinant Her2 (low=2.5 μg/mL; high=10 μg/mL). Following overnight incubation, the ant-Her2 CAR T cells were stained with an anti-CD69 fluorescent antibody, and the mean fluorescence of each cell population was measured using flow cytometry. CD69 was used as a T-cell activation marker.

In test [4] the test system is CAR-T cells co-cultured with target HER2+ SKOV3 tumor cells. In words: Cytokine production by CAR-T cells co-cultured with target tumor cells, Luminex multi-cytokine array. The settings on record: CAR-SMASh T cells, ASV 2 μM, E:T 10:1. From the text:
Human […] pan T cells were isolated from PBMC donors by magnetic-assisted cell sorting using StemCell Technologies Total Pan T Cell Isolation Kit and stimulated with anti-CD3/28 Dynabeads at a 1:3 ratio (T cells:Dynabeads), 10^6 T cells with 3×10^6 Dynabeads, in CTS OpTmizer media with CTS Serum Replacement and recombinant human IL-2 [100 U/ml]. 1 day later T cells were then transduced with lentivirus carrying anti-HER2 scFv CAR-SMASh designs. CAR-T cells were then split into a larger well with fresh media added. On Day 6 CAR-T cells were treated with ASV [2 μM] for 2 days. On Day 8 CAR-T cells were washed, replenished with ASV, and co-cultured with target HER2+ SKOV3 tumor cells at (10:1) effector-to-target (E:T) ratio, incubated overnight, and supernatants collected the next day. Cytokines were measured by Luminex multi-cytokine array using a Luminex MagPix (Sigma Millipore).

As to `C=C[C@@H]1C[C@]1(NC(=O)[C@@H]1C[C@@H](Oc2ncc(OC)c3ccc(Cl)cc23)CN1C(=O)[C@@H](NC(=O)OC(C)(C)C)C(C)(C)C)C(=O)NS(=O)(=O)C1CC1` [ASV, Asunaprevir], the “reversible effects on CAR expression (percentage YFP+) after removal of ASV” value with CAR [1] is listed as “not observed”. Moreover, the “CAR expression (percentage YFP+ and YFP MFI)” value in the test with CAR [2] (CAR T cells, ASV 2 μM, day 6 (FIG. 13)) is “no effect”. Also, the “CAR expression (percentage YFP+) over time after addition of ASV” value in the test with CAR [2] (T cells expressing CAR (FIG. 15A)) is recorded as “no effect”. Also, the “cells activated (CD69)” value in test [3] is “less than 25%”. The IFN-gamma production entry in test [4] (overnight (FIG. 19A)) was “decreased production”. In addition, in test [4] (overnight (FIG. 19B)), the IL-lalpha production entry was “decreased production”. In addition, the IL-6 production entry in test [4] (overnight (FIG. 19C)) was “decreased production”.
